By IC50 is commonly meant the concentration that gives 50% inhibition. Read a low IC50 as greater potency in that assay.

Marks after values point to notes of the source that are not given here. Strand notation (5' to 3'): a small letter for the sugar, then the base; units joined by * are phosphorothioate-linked, units joined directly phosphodiester-linked; [ ] holds rarer units or linkages, { } end groups; capitals alone tell only the bases. k = constrained ethyl (cEt); [5mC] = 5-methylcytosine; d = 2'-deoxy (DNA)

For series [1], the system named is Yap1 mRNA. Kind of series: Antisense inhibition of human Yap1 in A-431 cells by cEt gapmers, single dose (Example 2, RTS4814). The format is cell-based. An outline of the steps: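 A-431 cells (5,000/well) took up 2,000 nM 3-10-3 cEt gapmer by free uptake for ~48 h. Yap1 mRNA was quantified by qRT-PCR with primer probe set RTS4814, normalized to RIBOGREEN total RNA, and reported as % of untreated control.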

Series [2] deals with Yap1 mRNA. As to the kind of experiment: Dose-dependent inhibition of human Yap1 in A-431 cells (Example 8, 10,000 cells per well, RTS4814). The format is cell-based. Conditions: free uptake, approximately 48 hours, RTS4814; for Yap1 mRNA, % UTC: A-431 cells, 10,000 cells per well; for IC50: A-431 cells, linear regression on log/linear plot. The method in brief: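 Yap1 mRNA, normalized to RIBOGREEN total RNA and expressed as % untreated control, was read with RTS4814 about 48 h after free-uptake oligonucleotide treatment of A-431 cells at 10,000 cells/well. IC50 derived by linear regression of log/linear data.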

The mark [3] stands for this setting: Yap1 mRNA as percent of untreated control, A-431 cells, 3-10-3 cEt gapmers targeting SEQ ID NO.: 1, and 2, Table 31.
Setting [4] is: Yap1 mRNA as percent of untreated control, A-431 cells, 3-10-3 cEt gapmers targeting SEQ ID NO.: 1, and 2, Table 30.
[5] abbreviates: A-431 cells, 5,000 cells per well, free uptake, 2,000 nM modified oligonucleotide, approx. 48 hours, RTS4814, normalized to RIBOGREEN, Table 4, asterisk (*) = targets amplicon region of primer probe set.
Where [6] appears, read: Table 25, Yap1 mRNA as percent of untreated control, 3-10-3 cEt gapmers targeting SEQ ID NO.: 1, and 2.

As for “1076114 (kA*kT*kT*dA*dG*dT*dA*dA*dG*d[5mC]*dT*dG*dA*kG*kG*kA; antisense) [compound 1076114]”, the “YAP1 (% UTC)” value in series [1] (Table 32, Yap1 mRNA, percent of untreated control, 3-10-3 cEt gapmers targeting SEQ ID NO.: 1, and 2) was 3 % UTC. The “Yap1 mRNA, % UTC” value is listed as 34 % UTC in series [2] (31.3 nM), 11 % UTC in series [2] (125.0 nM), 6 % UTC in series [2] (500.0 nM) and 5 % UTC in series [2] (2000.00 nM). In addition, the IC50 in series [2] was less than 20 nM.

Regarding “1076049 (kA*kG*kA*dT*dT*dA*dA*dA*dG*dG*d[5mC]*dT*dG*kG*kA*kA; antisense) [compound 1076049]”, the “YAP1 (% UTC)” value in series [1] (setting [3]) stood at 4 % UTC. Also, the “Yap1 mRNA, % UTC” value in series [2] (31.3 nM) is reported as 61 % UTC; in series [2] (125.0 nM), 16 % UTC; in series [2] (500.0 nM), 13 % UTC; in series [2] (2000.00 nM) it was 6 % UTC. Moreover, in series [2], the IC50 was less than 20 nM.

Take “1074800 (k[5mC]*kA*kA*dA*dT*dA*dG*dT*dG*d[5mC]*dT*dT*dT*kG*kG*kA; antisense) [compound 1074800]”: the “YAP1 (% UTC)” value in series [1] (setting [4]) is 6 % UTC. Also, the “Yap1 mRNA, % UTC” value in series [2] (31.3 nM) is on record as 48 % UTC; in series [2] (125.0 nM) it was 21 % UTC; in series [2] (500.0 nM), 10 % UTC; in series [2] (2000.00 nM), 7 % UTC. Besides, the IC50 in series [2] is less than 20 nM.

Take “1074576 (DNA kA*kT*kG*d[5mC]*dA*d[5mC]*dA*dT*dT*dA*dT*dG*dA*kA*k[5mC]*k[5mC]) [compound 1074576]”: the “YAP1 (% UTC)” value in series [1] (setting [4]) came out at 7 % UTC. The “Yap1 mRNA, % UTC” value in series [2] (31.3 nM) is given as 69 % UTC; in series [2] (125.0 nM), 41 % UTC; in series [2] (500.0 nM), 14 % UTC; in series [2] (2000.00 nM) it was 9 % UTC. In addition, 100 nM corresponded to half-maximal inhibition in series [2] (IC50).

As to “1075824 (kG*kT*kA*dT*dT*dA*dG*dA*dG*dG*dT*dT*d[5mC]*k[5mC]*kA*kG; antisense) [compound 1075824]”, in series [1] (setting [4]), the “YAP1 (% UTC)” value came to 3 % UTC. Also, the “Yap1 mRNA, % UTC” value in series [2] (31.3 nM) is given as 33 % UTC; in series [2] (125.0 nM) it was 10 % UTC; in series [2] (500.0 nM), 5 % UTC; in series [2] (2000.00 nM), 3 % UTC. This substance also registered an IC50 in series [2] of less than 20 nM.

In the case of “1075249 (kA*kT*kT*dA*d[5mC]*dG*dA*dT*dT*dA*dG*dA*dT*k[5mC]*kA*kG; antisense) [compound 1075249]”, in series [1] (setting [3]), the “YAP1 (% UTC)” value was 5 % UTC. In addition, the “Yap1 mRNA, % UTC” value in series [2] (31.3 nM) is given as 77 % UTC; in series [2] (125.0 nM), 37 % UTC; in series [2] (500.0 nM) it was 16 % UTC; in series [2] (2000.00 nM) it was 8 % UTC. This substance also showed an IC50 in series [2] of 100 nM.

“716573 (kA*kG*kT*dT*dA*d[5mC]*dT*dA*d[5mC]*dT*dG*dT*dA*kA*kT*k[5mC]; antisense) [Compound 716573]”: the “YAP1 (% UTC)” value in series [1] (Table 6, A-431 cells, 5,000 cells per well, free uptake, 2,000 nM modified oligonucleotide, approx. 48 hours, RTS4814, normalized to RIBOGREEN, Yap1 mRNA relative to untreated control cells) worked out at 116 % UTC.

“1074899 (antisense kT*kA*kA*d[5mC]*dT*dT*dT*dT*dG*dG*dG*d[5mC]*dA*kA*kA*kG) [compound 1074899]”: the “YAP1 (% UTC)” value in series [1] (Table 33, Yap1 mRNA, percent of untreated control, 3-10-3 cEt gapmers targeting SEQ ID NO.: 1, and 2) is 52 % UTC.

As to “1076433 (kA*kT*kT*dA*dA*d[5mC]*dT*dT*dT*d[5mC]*dG*d[5mC]*dT*kA*kA*kA; antisense) [compound 1076433]”, in series [1] (setting [3]), the “YAP1 (% UTC)” value is reported as 69 % UTC.

Turning to “1076487 (antisense kG*kT*kA*d[5mC]*dG*dA*dA*dA*d[5mC]*dG*dA*dA*dA*k[5mC]*kG*kG) [Compound 1076487]”, in series [1] (Table 21, Yap1 mRNA, percent of untreated control, 3-10-3 cEt gapmers targeting SEQ ID NO.: 1 and 2), the “YAP1 (% UTC)” value is listed as 21 % UTC.

As for “716427 (kA*kG*k[5mC]*d[5mC]*d[5mC]*d[5mC]*d[5mC]*dA*dA*dA*dA*dT*dG*kA*kA*k[5mC]; antisense) [Compound 716427]”, the “YAP1 (% UTC)” value in series [1] (setting [5]) is 86 % UTC.

In the case of “1075115 (antisense kG*kT*kA*dT*dA*dG*d[5mC]*d[5mC]*dT*dT*dA*dT*dT*k[5mC]*kT*kT) [Compound 1075115]”, in series [1] (setting [6]), the “YAP1 (% UTC)” value is on record as 6 % UTC.

On to “1075563 (k[5mC]*k[5mC]*kA*dT*dA*dT*dA*dA*d[5mC]*d[5mC]*dA*dG*dT*kT*kT*kT; antisense) [Compound 1075563]”, for which the “YAP1 (% UTC)” value in series [1] (setting [6]) is listed as 12 % UTC.

As for “1074694 (antisense k[5mC]*k[5mC]*k[5mC]*d[5mC]*d[5mC]*d[5mC]*d[5mC]*d[5mC]*d[5mC]*dA*dA*dA*d[5mC]*kT*kT*kT) [Compound 1074694]”, the “YAP1 (% UTC)” value in series [1] (Table 20, Yap1 mRNA, percent of untreated control, 3-10-3 cEt gapmers targeting SEQ ID NO.: 1 and 2) is given as 79 % UTC.

With “1074440 (kG*k[5mC]*kT*dG*dT*dG*dA*d[5mC]*dA*dT*dG*dA*dA*kG*k[5mC]*kA; antisense) [Compound 1074440]”, in series [1] (Table 22, Yap1 mRNA as percent of untreated control, 3-10-3 cEt gapmers, single dose), the “YAP1 (% UTC)” value was 38* % UTC.

Take “716355 (kG*kA*k[5mC]*dG*dG*d[5mC]*dT*dG*d[5mC]*dG*dG*dG*d[5mC]*k[5mC]*kG*kG; antisense) [Compound 716355]”: the “YAP1 (% UTC)” value in series [1] (setting [5]) came out at 96 % UTC.

The record behind these values is patent US11214803B2, “Modulators of YAP1 expression” (Ionis Pharmaceuticals, Inc., priority 2019, dated 2022).
